{"source": "patent US8883852B2", "about": "“Radioprotective agents” (University of Pittburgh—Of the Commonwealth System of …, priority 2008, dated 2014)", "key": {"[1]": {"system": "32D cl 3 cells", "assay": "In vitro irradiation survival curves (clonogenic survival assay)", "type": "cell-based, mouse", "protocol": "The cells were irradiated with doses ranging from 0 to 8 Gy. The 32D cl 3 cells were plated in methycellulose, incubated at 37° C. for one week at which time colonies of greater than 50 cells were counted (Epperly, M. W. et al. Mitochondrial localization of superoxide dismutase is required for decreasing radiation induced cell damage. Radiat. Res. 160, 568-578 (2003) and Epperly, M. W. et al. Ethyl pyruvate, a potentially effective total body irradiation damage mitigator. Radiat. Res. 168, 552-559 (2007)). The data were analyzed using linear quadratic and single-hit, multi-target models (Id.)."}, "[2]": {"assay": "Hypoglycemia at the dose of glyburide used in the present study", "type": "in vivo"}, "[3]": {"system": "HeLa cells", "assay": "Irradiation-induced cell death, cell-based assay", "design": "species or system human", "conditions": "γ-irradiated (10 or 25 Gy), data not shown", "protocol": "(§1) Cells were cultured in fresh medium prior to irradiation and were γ-irradiated with a Shepherd model 143-45A irradiator (J. L. Shepherd & Associates, CA) at a dose rate of 4 Gy/min. Cells were incubated with drugs at the indicated concentrations 1 h before or 30 min after irradiation. Cell viability was determined using phosphatidylserine (PS) externalization/propidium iodide (PI) permeabilization assay or LDH Assay after 72 h post-irradiation incubation.\n(§2) Cells were exposed to γ-irradiation at different doses (10 or 25 Gy) based on their radiosensitivity. […] The mechanisms responsible for the differences in glyburide response are not known but are worthy of further investigation."}, "[4]": {"system": "H1299 cells", "assay": "Irradiation-induced cell death, cell-based assay", "design": "species or system human", "conditions": "γ-irradiated (10 or 25 Gy), data not shown", "protocol": "as §1, §2"}, "[5]": {"system": "KM101 cells", "assay": "Irradiation-induced cell death, cell-based assay", "design": "species or system human", "conditions": "γ-irradiated (10 or 25 Gy), data not shown", "protocol": "as §1, §2"}, "[6]": {"system": "C57BL/6NHsd female mice", "assay": "In vivo irradiation survival curves, total body irradiation", "design": "species or system mouse", "text": "Other groups of mice were control mice, or vehicle only irradiated mice.\nThe mice were followed for the development of irradiation induced damage to the hematopoietic system which occurs within the first 30 days after irradiation (FIG. 7)."}, "[7]": {"system": "human primary astrocytes", "assay": "Irradiation-induced cell death, LDH release assay", "type": "cell-based", "conditions": "50 and 100 μM, 1-h prior to irradiation (25 Gy)", "protocol": "as §1\nFor human primary astrocytes, cell viability was determined by assaying the medium from each sample for LDH activity according to the manufacturer's instructions (Sigma). The enzyme activity from the culture medium and floating cells were used as an index of cell death. To determine total LDH activity, the adherent cells were lysed in 0.5% Triton X-100 and assayed for LDH activity, this cell-associated LDH activity was then added to the LDH activity in the removed culture medium. The amount of LDH present in the medium was calculated as a percentage of the total, which was used to calculate the percent cell death in the corresponding samples.\nas §2"}, "[8]": {"system": "BEAS-2B cells", "assay": "Irradiation-induced cell death, flow cytometry", "type": "cell-based, human", "conditions": "1-h prior to irradiation (10 Gy)", "protocol": "as §1\n(§3) After 72 h post-irradiation incubation, attached cells were harvested by trypsinization and pooled with detached cells from supernatant. Harvested cells were then stained with annexin-V-FITC and PI for 5 min in the dark prior to flow cytometry analysis (FACscan, Becton-Dickinson, Rutherford, N.J.). Cell debris was gated out by forward and side scatter under the same conditions, and a minimum of 10,000 gated cells were acquired. Percentages of annexin-V-positive cells were calculated by combining annexin V+/PI− (early apoptotic) and annexin V+/PI+ (late apoptotic or necrotic) cells.\nas §2"}, "[9]": {"system": "U-87 MG cells", "assay": "Irradiation-induced cell death, flow cytometry", "type": "cell-based, human", "conditions": "1-h prior to irradiation (10 Gy)", "protocol": "as §1, §3, §2"}, "[10]": {"system": "T98G cells", "assay": "Irradiation-induced cell death, PS externalization/PI permeabilization by flow cytometry", "type": "cell-based, human", "conditions": "for irradiation induced cell death (PS externalization/PI permeability): drug 1-h prior to 25 Gy γ-irradiation, glyburide 12.5-200 μM, 72 h post-irradiation", "protocol": "as §1, §3\nIn the present study, we selected 10 chemicals that targeted 13 candidate siRNA gene transcripts for further study (Table 3). The radioprotective effects of the compounds were tested in T98G cells, which were initially used in the siRNA screen. […] The other nine chemicals lacked any obvious protective effect on γ-irradiation induced cell death under the current experimental conditions (FIG. 4A)."}}, "note": "Entries after “also recorded” stand apart in the source; their conditions may differ."}
{"smiles": "COc1ccc(Cl)cc1C(=O)NCCc1ccc(S(=O)(=O)NC(=O)NC2CCCCC2)cc1", "note": "[glyburide, 5-chloro-N-[2-[4-(cyclohexylcarbamoylsulfamoyl)phenyl]ethyl]-2-methoxy-benzamide]", "values": [{"measurement": "n or shoulder on the irradiation survival curve", "setting": "[1]; 10 μM in methylcellulose following irradiation (0-8 Gy)", "value": "2.5±0.9"}, {"measurement": "survival of 32D cl 3 cells", "setting": "[1]; 10 μM, 1-h before irradiation (0-8 Gy)", "value": "significantly increased the survival"}, {"measurement": "hypoglycemia", "setting": "[2]", "value": "did not cause hypoglycemia"}, {"measurement": "radioprotection", "setting": "[3]", "value": "no protective effect; also recorded: only limited protection"}, {"measurement": "radioprotection", "setting": "[4]", "value": "no protective effect; also recorded: only limited protection"}, {"measurement": "radioprotection", "setting": "[5]", "value": "no protective effect; also recorded: only limited protection"}, {"measurement": "survival compared to irradiated controls", "setting": "[6]; 5 mg/kg i.p. 10 min after 9.5 Gy total body irradiation", "value": "no significant increase in survival; also recorded: not protected from irradiation"}, {"measurement": "survival compared to irradiated controls and vehicle only", "setting": "[6]; 5 mg/kg i.p. 10 min before 9.5 Gy total body irradiation, P=0.04", "value": "significantly increased survival; also recorded: protected as seen by an increase in survival; also recorded: increased the survival rate"}, {"measurement": "mice survived", "setting": "[6]; 5 mg/kg intraperitoneal 10 min before 9.5 Gy total body irradiation", "value": 60, "unit": "%"}, {"measurement": "mice survived", "setting": "[6]; glyburide injected 10-min after 9.5 Gy total body irradiation", "value": 44, "unit": "%"}, {"measurement": "radioprotection", "setting": "[7]", "value": "effective radioprotection"}, {"measurement": "radioprotection", "setting": "[7]; listed as Glyburide", "value": "effectively relieved irradiation induced cell death"}, {"measurement": "radioprotection", "setting": "[8]", "value": "effective radioprotection"}, {"measurement": "radioprotection", "setting": "[8]; listed as Glyburide", "value": "effectively relieved irradiation induced cell death"}, {"measurement": "radioprotection", "setting": "[9]", "value": "effective radioprotection"}, {"measurement": "radioprotection", "setting": "[9]; listed as Glyburide", "value": "effectively relieved irradiation induced cell death"}, {"measurement": "protection over a range of irradiation exposure", "setting": "[10]; 200 μM, 1-h prior to 5-25 Gy", "value": "effectively protected cells"}, {"measurement": "irradiation induced apoptosis, post-irradiation treatment", "setting": "[10]; added 30-min after γ-irradiation (25 Gy)", "value": "protected cells from irradiation induced apoptosis to a similar extent"}, {"measurement": "irradiation induced cell death (PS externalization/PI permeability)", "setting": "[10]", "value": "attenuated irradiation induced cell death in a concentration-dependent manner; also recorded: demonstrated radioprotective effect"}, {"measurement": "irradiation induced cell death (PS externalization/PI permeability)", "setting": "[10]; listed as Glyburide", "value": "effectively relieved irradiation induced cell death"}]}
